Source: patent publication US10508104B2, “6-hydroxy-5-(phenyl/heteroarylsulfonyl)pyrimidin-4(1H)-one as APJ agonists” (Bristol-Myers Squibb Company, priority 2016, dated 2019)
Where two headings read alike, the source gives them in different places.

Biological target: human APJ receptor (Homo sapiens (Human), UniProt P35414)
Assay: Intracellular cAMP accumulation assay (APJ hcAMP, HTRF)
Format: cell-based
Details: read-out: Human APJ cAMP EC50 Potency range
Experimental: Intracellular cAMP Accumulation Assay
HEK293 cells stably expressing human APJ receptor were used to assess the activity of compounds. Cultured cells were detached and resuspended in the cAMP Homogeneous Time-Resolved Fluorescence (HTRF) assay buffer (Cisbio cat; #62AM4PEJ). The assay was performed in 384-well assay plates (Perkin-Elmer; cat #6008289) according to assay protocol provided by the manufacturer. Serial dilutions of a compound together with assay buffer containing […] and 2 μM forskolin were added to each well containing 5,000 cells and incubated for 30 minutes at room temperature. Subsequently, cAMP D2 reagent was added in the lysis buffer followed by the EuK antibody (Cisbio; cat #62AM4PEJ) and incubated for 60 min. The fluorescence emission ratio was measured using fluorometer. The intracellular cAMP concentrations (compound-stimulated inhibition of forskolin-mediated cAMP production) were calculated by extrapolation from a standard curve using known cAMP concentrations. The EC50 values were obtained by fitting the data to a sigmoidal concentration-response curve with variable slope.
The EC50 value of each compound is presented at the end of the example description.
The biological activity of the exemplified compounds of this invention determined by the assay described above is shown at the end of each example.

[1] = human APJ, intracellular cAMP accumulation

Chain of human APJ receptor (P35414 whole entry): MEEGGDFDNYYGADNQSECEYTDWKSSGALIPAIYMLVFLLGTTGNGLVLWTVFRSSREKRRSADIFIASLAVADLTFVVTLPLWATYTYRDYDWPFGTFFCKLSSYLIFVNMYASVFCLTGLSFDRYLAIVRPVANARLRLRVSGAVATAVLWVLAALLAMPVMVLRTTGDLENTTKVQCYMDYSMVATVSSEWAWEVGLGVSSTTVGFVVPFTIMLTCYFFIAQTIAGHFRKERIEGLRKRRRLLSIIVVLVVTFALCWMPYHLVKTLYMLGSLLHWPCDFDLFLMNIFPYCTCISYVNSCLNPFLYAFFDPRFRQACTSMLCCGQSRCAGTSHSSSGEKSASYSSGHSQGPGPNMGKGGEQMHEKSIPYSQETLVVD

| Compound | EC50 [1] [nM] | EC50 (HEK293 cells stably expressing human APJ receptor, inhibition of forskolin-mediated cAMP production) [nM] |
| --- | --- | --- |
| CCCCc1nc(=O)c(S(=O)(=O)Cc2ccccc2)c(O)n1-c1c(OC)cccc1OC [Example 5, 2-butyl-1-(2,6-dimethoxyphenyl)-6-hydroxy-5-phenylmethanesulfonyl-1,4-dihydropyrimidin-4-one] | 10 to 100 | – |
| CCCCc1nc(=O)c(S(=O)(=O)c2ccc(C(F)(F)F)cn2)c(O)n1-c1c(OC)cccc1OC [Example 6, 2-butyl-1-(2,6-dimethoxyphenyl)-6-hydroxy-5-{[5-(trifluoromethyl)pyridin-2-yl]sulfonyl}-1,4-dihydropyrimidin-4-one] | 0.01 to 10 | – |
| CCCCc1nc(=O)c(S(=O)(=O)c2ccc(-c3ccc(F)cc3)cc2)c(O)n1-c1c(OC)cccc1OC [Example 7, 2-Butyl-1-(2,6-dimethoxyphenyl)-5-((4′-fluoro-[1,1′-biphenyl]-4-yl)sulfonyl)-6-hydroxypyrimidin-4(1H)-one] | – | 0.01 to 10 |
| CCCCc1nc(=O)c(S(=O)(=O)c2ccc(-c3cn(C)nc3C(F)(F)F)cc2)c(O)n1-c1c(OC)cccc1OC [Example 9, 2-butyl-1-(2,6-dimethoxyphenyl)-6-hydroxy-5-{4-[1-methyl-3-(trifluoromethyl)-1H-pyrazol-4-yl]benzenesulfonyl}-1,4-dihydropyrimidin-4-one] | 0.01 to 10 | – |
| CCCCc1nc(=O)c(S(=O)(=O)c2ccc(-c3cnn(C(C)C)c3)cc2)c(O)n1-c1c(OC)cccc1OC [Example 10, 2-butyl-1-(2,6-dimethoxyphenyl)-6-hydroxy-5-{4-[1-(propan-2-yl)-1H-pyrazol-4-yl]benzenesulfonyl}-1,4-dihydropyrimidin-4-one] | 0.01 to 10 | – |
| CCCCc1nc(=O)c(S(=O)(=O)c2ccc(-c3ccc(F)nc3)cc2)c(O)n1-c1c(OC)cccc1OC [Example 15, 2-butyl-1-(2,6-dimethoxyphenyl)-5-[4-(6-fluoropyridin-3-yl)benzenesulfonyl]-6-hydroxy-1,4-dihydropyrimidin-4-one] | 0.01 to 10 | – |
| CCCCc1nc(=O)c(S(=O)(=O)c2ccc(-c3ccc(C#N)nc3)cc2)c(O)n1-c1c(OC)cccc1OC [Example 16, 5-(4-{[2-butyl-1-(2,6-dimethoxyphenyl)-6-hydroxy-4-oxo-1,4-dihydropyrimidin-5-yl]sulfonyl)phenyl)pyri-dine-2-carbonitrile] | 0.01 to 10 | – |
| COc1cccc(OC)c1-n1c(CCC(C)C)nc(=O)c(S(=O)(=O)c2ccccc2-c2cn(C)nc2C(F)(F)F)c1O [Example 25, 1-(2,6-dimethoxyphenyl)-6-hydroxy-5-{2-[1-methyl-3-(trifluoromethyl)-1H-pyrazol-4-yl]benzenesulfonyl}-2-(3-methylbutyl)-1,4-dihydropyrimidin-4-one] | 100 to 300 | – |
| CCCCc1nc(=O)c(S(=O)(=O)c2ccc(-c3ccc(F)cc3C)cc2)c(O)n1-c1c(OC)cccc1OC [Example 26, 2-butyl-1-(2,6-dimethoxyphenyl)-5-[4-(4-fluoro-2-methylphenyl)benzenesulfonyl]-6-hydroxy-1,4-dihydropyrimidin-4-one] | 0.01 to 10 | – |
| CCCCc1nc(=O)c(S(=O)(=O)c2ccc(-c3ccc(N4CCOCC4)nc3)cc2)c(O)n1-c1c(OC)cccc1OC [Example 28, 2-butyl-1-(2,6-dimethoxyphenyl)-6-hydroxy-5-{4-[6-(morpholin-4-yl)pyridin-3-yl]benzenesulfonyl}-1,4-dihydropyrimidin-4-one] | 0.01 to 10 | – |
| CCCCc1nc(=O)c(S(=O)(=O)c2ccc(-c3ccccc3OC3CC3)cc2)c(O)n1-c1c(OC)cccc1OC [Example 29] | 0.01 to 10 | – |
| CCCCc1nc(=O)c(S(=O)(=O)c2ccc(-c3cccnc3OC)cc2)c(O)n1-c1c(OC)cccc1OC [Example 30, 2-butyl-1-(2,6-dimethoxyphenyl)-6-hydroxy-5-[4-(2-methoxypyridin-3-yl)benzenesulfonyl]-1,4-dihydropyrimidin-4-one] | 0.01 to 10 | – |
| CCCCc1nc(=O)c(S(=O)(=O)c2ccc(-c3ccc(C(C)(C)O)cc3)cc2)c(O)n1-c1c(OC)cccc1OC [Example 31, 2-butyl-1-(2,6-dimethoxyphenyl)-6-hydroxy-5-{4-[4-(2-hydroxypropan-2-yl)phenyl]benzene-sulfonyl}-1,4-dihydropyrimidin-4-one] | 0.01 to 10 | – |
| COc1cccc(OC)c1-n1c(COC(C)C)nc(=O)c(S(=O)(=O)c2ccc(-c3ccc(F)nc3)cc2)c1O [Example 32, 1-(2,6-dimethoxyphenyl)-5-[4-(6-fluoropyridin-3-yl)benzenesulfonyl]-6-hydroxy-2-[(propan-2-yloxy)methyl]-1,4-dihydropyrimidin-4-one] | 0.01 to 10 | – |
| CCCCc1nc(=O)c(S(=O)(=O)c2ccc(-c3ccncc3F)cc2)c(O)n1-c1c(OC)cccc1OC [Example 34, 2-butyl-1-(2,6-dimethoxyphenyl)-5-[4-(3-fluoropyridin-4-yl)benzenesulfonyl]-6-hydroxy-1,4-dihydropyrimidin-4-one] | 0.01 to 10 | – |

More lines, now with the values ahead:

| EC50 [1] [nM] | EC50 (HEK293 cells stably expressing human APJ receptor, inhibition of forskolin-mediated cAMP production) [nM] | Compound |
| --- | --- | --- |
| 0.01 to 10 | – | CCCCc1nc(=O)c(S(=O)(=O)c2ccc(-c3ccccc3)cc2)c(O)n1-c1c(OC)cccc1OC [Example 8, 2-butyl-1-(2,6-dimethoxyphenyl)-6-hydroxy-5-(4-phenylbenzenesulfonyl)-1,4-dihydropyrimidin-4-one] |
| 0.01 to 10 | – | COc1cccc(OC)c1-n1c(CCC(C)C)nc(=O)c(S(=O)(=O)c2ccc(-c3ccccc3)cc2)c1O [Example 11, 1-(2,6-dimethoxyphenyl)-6-hydroxy-2-(3-methylbutyl)-5-(4-phenylbenzenesulfonyl)-1,4-dihydropyrimidin-4-one] |
| 0.01 to 10 | – | COc1cccc(OC)c1-n1c(CCC(C)C)nc(=O)c(S(=O)(=O)c2ccc(-c3ccc(F)cc3)cc2)c1O [Example 12, 1-(2,6-dimethoxyphenyl)-5-[4-(4-fluorophenyl)benzene-sulfonyl]-6-hydroxy-2-(3-methylbutyl)-1,4-dihydropyrimidin-4-one] |
| 0.01 to 10 | – | COc1cccc(OC)c1-n1c(CCC(C)C)nc(=O)c(S(=O)(=O)c2ccc(-c3ccc(Cl)cc3)cc2)c1O [Example 14, 5-[4-(4-chlorophenyl)benzene-sulfonyl]-1-(2,6-dimethoxyphenyl)-6-hydroxy-2-(3-methylbutyl)-1,4-dihydropyrimidin-4-one] |
| 0.01 to 10 | – | COc1cccc(OC)c1-n1c(CCC(C)C)nc(=O)c(S(=O)(=O)c2ccc(-c3ccc(C#N)nc3)cc2)c1O [Example 17, 5-(4-{[1-(2,6-dimethoxyphenyl)-6-hydroxy-2-(3-methylbutyl)-4-oxo-1,4-dihydropyrimidin-5-yl]sulfonyl}phenyl)pyri-dine-2-carbonitrile] |
| 0.01 to 10 | – | COc1cccc(OC)c1-n1c(CCC(C)C)nc(=O)c(S(=O)(=O)c2cccc(-c3ccc(F)cc3)c2)c1O [Example 18, 1-(2,6-dimethoxyphenyl)-5-[3-(4-fluorophenyl)benzene-sulfonyl]-6-hydroxy-2-(3-methylbutyl)-1,4-dihydropyrimidin-4-one] |
| 0.01 to 10 | – | COc1cccc(OC)c1-n1c(CCC(C)C)nc(=O)c(S(=O)(=O)c2cccc(-c3ccccc3)c2)c1O [Example 19, 1-(2,6-dimethoxyphenyl)-6-hydroxy-2-(3-methylbutyl)-5-(3-phenylbenzenesulfonyl)-1,4-dihydropyrimidin-4-one] |
| 0.01 to 10 | – | COc1cccc(OC)c1-n1c(CCC(C)C)nc(=O)c(S(=O)(=O)c2cccc(-c3cn(C)nc3C(F)(F)F)c2)c1O [Example 20, 1-(2,6-dimethoxyphenyl)-6-hydroxy-5-{3-[1-methyl-3-(trifluoromethyl)-1H-pyrazol-4-yl]benzenesulfonyl}-2-(3-methylbutyl)-1,4-dihydropyrimidin-4-one] |
| 10 to 100 | – | COc1cccc(OC)c1-n1c(CCC(C)C)nc(=O)c(S(=O)(=O)c2ccccc2-c2ccc(F)cc2)c1O [Example 21, 1-(2,6-dimethoxyphenyl)-5-[2-(4-fluorophenyl)benzene-sulfonyl]-6-hydroxy-2-(3-methylbutyl)-1,4-dihydropyrimidin-4-one] |
| 10 to 100 | – | COc1cccc(OC)c1-n1c(CCC(C)C)nc(=O)c(S(=O)(=O)c2ccccc2-c2ccccc2)c1O [Example 22, 1-(2,6-dimethoxyphenyl)-6-hydroxy-2-(3-methylbutyl)-5-(2-phenylbenzenesulfonyl)-1,4-dihydropyrimidin-4-one] |
| 0.01 to 10 | – | COc1cccc(OC)c1-n1c(CCC(C)C)nc(=O)c(S(=O)(=O)c2cccc(-c3ccc(F)nc3)c2)c1O [Example 23, 1-(2,6-dimethoxyphenyl)-5-[3-(6-fluoropyridin-3-yl)benzenesulfonyl]-6-hydroxy-2-(3-methylbutyl)-1,4-dihydropyrimidin-4-one] |
| 10 to 100 | – | COc1cccc(OC)c1-n1c(CCC(C)C)nc(=O)c(S(=O)(=O)c2ccccc2-c2ccc(F)nc2)c1O [Example 24, 1-(2,6-dimethoxyphenyl)-5-[2-(6-fluoropyridin-3-yl)benzenesulfonyl]-6-hydroxy-2-(3-methylbutyl)-1,4-dihydropyrimidin-4-one] |
| 0.01 to 10 | – | CCCCc1nc(=O)c(S(=O)(=O)c2ccc(-c3ccnc(C)c3)cc2)c(O)n1-c1c(OC)cccc1OC [Example 27, 2-butyl-1-(2,6-dimethoxyphenyl)-6-hydroxy-5-[4-(2-methylpyridin-4-yl)benzenesulfonyl]-1,4-dihydropyrimidin-4-one] |
| 0.01 to 10 | – | COc1cccc(OC)c1-n1c(COC(C)C)nc(=O)c(S(=O)(=O)c2ccc(-c3ccccc3)cc2)c1O [Example 33, 1-(2,6-dimethoxyphenyl)-6-hydroxy-5-(4-phenylbenzenesulfonyl)-2-[(propan-2-yloxy)methyl]-1,4-dihydropyrimidin-4-one] |
